A short description of series [1]: specific surface area (multi point BET, nitrogen). Conditions: air-jet-ground, anhydrous. It is filed as physicochemical. The text has this:
• Measuring method: In order to determine the particle size the powder is fed into a laser diffraction spectrometer using a dispersing unit. The median value X50 refers to the particle size below which 50% of the quantity of particles fall. The Q(5.8) value describes the percentage of particles which are less than 5.8 μm in size. • Measuring device: Laser diffraction spectrometer (HELOS), Messrs. • Sympatec • Software: WINDOX Version 3.3/REL 1 • Dispersing unit: RODOS/dispersing pressure: 3 bar • Focal length: 100 mm [measuring range: 0.9 . . . . 175 μm] • Evaluation method: HRLD (V 3.3 Rel. 1) b) Determining the Specific Surface Area: • Measuring method: The specific surface is determined by exposing the powder sample to a nitrogen atmosphere at different pressures.
Cooling the sample causes the nitrogen molecules to be condensed on the surface of the particles. The quantity of condensed nitrogen is determined by means of the drop in pressure in the system and the specific surface area of the sample is calculated by means of the surface nitrogen requirement and the weight of the sample. • Measuring device: Tri Star Multi Point BET, Messrs. Micromeritics • Heating station: VacPrep 061, Messrs. Micromeritics
Heating: approx. 12 h/40° C.

The nature of series [2]: physical stability of the amorphous micronised active substance in powder mixtures with excipients. It is filed as physicochemical. From the text:
It is known that the amorphous state of solids is thermodynamically unstable. In particular, this contributes to the fact that microparticles which have amorphous parts or are purely amorphous are metastable in their physicochemical properties. Typically, amorphous or partially amorphous pharmaceutical active substances and excipients, such as sugars, for example, recrystallise spontaneously during storage under normal conditions. The process may be accelerated by an increase in the relative humidity and possibly the temperature. In association with this recrystallisation, the particles change their surface characteristics, their particle morphology and their particle size.

A short description of a further series: hygroscopicity. It is filed as physicochemical.
For series [3] the following is noted: conventional formulations; cited from earlier work.
The nature of series [4]: systemic bioavailability after pulmonary or nasal inhalation. It is filed as in vivo. Conditions: powder mixture with excipients, inhaled.

The text below walks through data of patent publication US20060222599A1, “Inhalative powder formulations containing the CGRP-antagonist 1 [N2-[3,5-dibromo-N-[[4-(3,4-dihydro-2(1H)-oxoquinazolin-3-yl)-1-piperidinyl]carbonyl]-D-tyrosyl]-L-lysyl]-4-(4-pyridinyl)-piperazine” (Boehringer Ingelheim International GmbH, priority 2003, published 2006).

Structures are written as SMILES. Like-named read-outs stand apart in the source and are kept apart here.

On to `NCCCC[C@H](NC(=O)[C@@H](Cc1cc(Br)c(O)c(Br)c1)NC(=O)N1CCC(N2Cc3ccccc3NC2=O)CC1)C(=O)N1CCN(c2ccncc2)CC1` [A, 1-[N^2-[3,5-dibromo-N-[[4-(3,4-dihydro-2(1H)-oxoquinazolin-3-yl)-1-piperidinyl]carbonyl]-D-tyrosyl]-L-lysyl]-4-(4-pyridinyl)-piperazine], for which the specific surface area in series [1] is listed as 20.2 m^2/g. The “amorphous form on storage (X-ray powder diffractometry)” value in series [2] (amorphous micronised particles, shelf life of the medicament) is on record as “maintained throughout the shelf life”. Further, the physical stability result in series [2] (powder mixtures with excipients) is “physically stable”. For the same compound, the hygroscopicity result is “hygroscopic” in “hygroscopicity” and “strongly hygroscopic” in “hygroscopicity” (listed as active substance). Further, the oral bioavailability result in series [3] is given as “very limited oral bioavailability”. Also, the “bioavailability by pulmonary or nasal inhalation” value in series [4] is “sufficiently bioavailable”.
